US7109354B2, “Thiophene amidines, compositions thereof, and methods of treating complement-mediated diseases and conditions” (3-Dimensional Pharmaceuticals, Inc., priority 2002, dated 2006)
Structures can show the parent of a compound that is named as a salt.

Molecular target: T1, Activated human C1s (Homo sapiens, UniProt P09871)
T1 construct: purchased Calbiochem (La Jolla, Calif.)
T1 sequence (P09871 438-688 limits assumed): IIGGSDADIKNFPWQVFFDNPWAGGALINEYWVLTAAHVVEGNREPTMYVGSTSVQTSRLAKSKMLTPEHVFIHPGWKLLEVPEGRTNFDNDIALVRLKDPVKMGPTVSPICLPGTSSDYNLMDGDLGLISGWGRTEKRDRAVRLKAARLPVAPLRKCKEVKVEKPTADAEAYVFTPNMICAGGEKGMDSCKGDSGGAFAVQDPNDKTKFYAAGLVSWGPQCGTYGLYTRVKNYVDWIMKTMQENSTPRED
T1 sequence (P09871 16-437 partner limits assumed): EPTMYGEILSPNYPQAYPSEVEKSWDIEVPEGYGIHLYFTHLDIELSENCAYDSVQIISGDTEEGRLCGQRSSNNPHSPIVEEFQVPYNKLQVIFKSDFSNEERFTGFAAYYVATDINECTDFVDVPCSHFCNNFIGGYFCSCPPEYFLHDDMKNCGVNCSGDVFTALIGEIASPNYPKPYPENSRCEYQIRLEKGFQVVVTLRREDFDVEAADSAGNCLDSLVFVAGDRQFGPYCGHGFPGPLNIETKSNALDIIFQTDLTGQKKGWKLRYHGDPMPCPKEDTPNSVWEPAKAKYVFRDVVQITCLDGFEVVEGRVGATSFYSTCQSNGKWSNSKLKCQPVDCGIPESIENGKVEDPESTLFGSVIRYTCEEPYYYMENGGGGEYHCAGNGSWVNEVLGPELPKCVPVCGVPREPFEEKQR
Experiment: In vitro inhibition of C1s (Ki determination, C1s-catalyzed hydrolysis of Z-Gly-Arg-S-Bzl, DTNB readout)
Assay type: biochemical
Conditions: substrate Z-Gly-Arg-S-Bzl 45 μM, DTNB 200 μM, C1s 2.3 nM, pH 7.5, 37° C., absorbance at 405 nm

| Ki [nM] | SMILES |
| --- | --- |
| 6 to 23 | COc1cc(C)c(-c2cccc(S(=O)(=O)c3cc(C(=N)N)sc3SC)c2)c(NC(=O)CCCCCS(C)(=O)=O)c1 [Example 255, 6-Methanesulfonyl-hexanoic acid[3′-(5-carbamimidoyl-2-methylsulfanyl-thiophene-3-sulfonyl)-4-methoxy-6-methyl-biphenyl-2-yl]-amide trifluoroacetate] |
| 6 to 23 | COc1cc(C)c(-c2cccc(S(=O)(=O)c3cc(C(=N)N)sc3SC)c2)c(NC(=O)CCS(C)(=O)=O)c1 [Example 256, N-[3′-(5-Carbamimidoyl-2-methylsulfanyl-thiophene-3-sulfonyl)-4-methoxy-6-methyl-biphenyl-2-yl]-3-methanesulfonyl-propionamide trifluoroacetate] |
| 6 to 23 | CSc1sc(C(=N)N)cc1S(=O)(=O)c1cccc(-c2ccc(N(C)C(=N)N)cc2C)c1 [Example 262, 4-[2′-Methyl-4′-(N-methyl-guanidino)-biphenyl-3-sulfonyl]-5-methylsulfanyl-thiophene-2-carboxamidine bis-trifluoroacetate] |
| 6 to 23 | CSc1sc(C(=N)N)cc1S(=O)(=O)c1cccc(-c2ccc(NC(=N)NCCCCCC(=O)O)cc2C)c1 [Example 263, 6-{N′-[3′-(5-Carbamimidoyl-2-methylsulfanyl-thiophene-3-sulfonyl)-2-methyl-biphenyl-4-yl]-guanidino}-hexanoic acid] |
| 6 to 23 | CSc1sc(C(=N)N)cc1S(=O)(=O)c1cccc(-c2ccc(NC(N)=NCCCc3ccccc3)cc2C)c1 [Example 280, 4-{2′-Methyl-4′-[N′-(3-phenyl-propyl)-guanidino]-biphenyl-3-sulfonyl}-5-methylsulfanyl-thiophene-2-carboxamidine bistrifluoroacetate] |
| 6 to 23 | CSc1sc(C(=N)N)cc1S(=O)(=O)c1cccc(-c2ccc(NC(=N)NCCC(C)C)cc2C)c1 [Example 282, 4-{2′-Methyl-4′-[N′-(3-methyl-butyl)-guanidino]-biphenyl-3-sulfonyl}-5-methylsulfanyl-thiophene-2-carboxamidine bistrifluoroacetate] |
| 6 to 23 | CSc1sc(C(=N)N)cc1S(=O)(=O)c1cccc(-c2ccc(NC(=O)NCCCS(C)(=O)=O)cc2C)c1 [Example 296, 4-{4′-[3-(3-Methanesulfonyl-propyl)-ureido]-2′-methyl-biphenyl-3-sulfonyl}-5-methylsulfanyl-thiophene-2-carboxamidine trifluoroacetate] |
| 6 to 23 | CSc1sc(C(=N)N)cc1S(=O)(=O)c1cccc(-c2ccc(NC(=N)N)cc2C)c1 [Example 314, 4-(4′-Guanidino-2′-methyl-biphenyl-3-sulfonyl)-5-methylsulfanyl-thiophene-2-carboxamidine bis-trifluoroacetate] |
| 6 to 23 | CO/N=C(\N)Nc1ccc(-c2cccc(S(=O)(=O)c3cc(C(=N)N)sc3SC)c2)c(C)c1 [Example 315, 4-[2′-Methyl-4′-(N′-methoxyl-guanidino)-biphenyl-3-sulfonyl]-5-methylsulfanyl-thiophene-2-carboxamidine bis-trifluoroacetate] |

The next lines start with the compound.

| SMILES | Ki [nM] |
| --- | --- |
| CSc1sc(C(=N)N)cc1S(=O)(=O)c1cccc(-c2c(C)cccc2NC(=O)CS(C)(=O)=O)c1 [Example 257, N-[3′-(5-Carbamimidoyl-2-methylsulfanyl-thiophene-3-sulfonyl)-6-methyl-biphenyl-2-yl]-2-methanesulfonyl-acetamide trifluoroacetate] | 6 to 23 |
| CSc1sc(C(=N)N)cc1S(=O)(=O)c1cccc(-c2c(C)cccc2NC(=O)C(C)S(C)(=O)=O)c1 (stereo not shown) [Example 258, N-[3′-(5-Carbamimidoyl-2-methylsulfanyl-thiophene-3-sulfonyl)-6-methyl-biphenyl-2-yl]-2-methanesulfonyl-propionamide trifluoroacetate] | 6 to 23 |
| CSc1sc(C(=N)N)cc1S(=O)(=O)c1cccc(-c2c(C)cc(NC(=N)N)cc2NC(=O)CCCS(C)(=O)=O)c1 [Example 260, N-[3′-(5-Carbamimidoyl-2-methylsulfanyl-thiophene-3-sulfonyl)-4-guanidino-6-methyl-biphenyl-2-yl]-4-methanesulfonyl-butyramide bis-trifluoroacetate] | 6 to 23 |
| CSc1sc(C(=N)N)cc1S(=O)(=O)c1cccc(-c2c(C)cc(NC(=N)N)cc2NC(=O)CCCCC(=O)O)c1 [Example 261, 5-[3′-(5-Carbamimidoyl-2-methylsulfanyl-thiophene-3-sulfonyl)-4-guanidino-6-methyl-biphenyl-2-ylcarbamoyl]-pentanoic acid bis-trifluoroacetate] | 6 to 23 |
| CSc1sc(C(=N)N)cc1S(=O)(=O)c1cc(Br)c2c(c1)ncn2Cc1cc(F)ccc1F [Example 275, 4-[7-Bromo-1-(2,5-difluoro-benzyl)-1H-benzoimidazole-5-sulfonyl]-5-methylsulfanyl-thiophene-2-carboxamidine trifluoroacetate] | 6 to 23 |
| CSc1sc(C(=N)N)cc1S(=O)(=O)c1cccc(-c2c(C)cc(NC(=O)NCCCS(C)(=O)=O)cc2NC(=O)NCCCS(C)(=O)=O)c1 [Example 294, 4-{4′,6′-Bis-[3-(3-methanesulfonyl-propyl)-uredo]-2′-methyl-biphenyl-3-sulfonyl}-5-methylsulfanyl-thiophene-2-carboxamidine trifluoroacetate] | 6 to 23 |
| CSc1sc(C(=N)N)cc1S(=O)(=O)c1cccc(-c2c(C)cc(NC(=N)N)cc2NC(=O)CCCCCCCCCCC(=O)O)c1 [Example 295, 11-[3′-(5-Carbamimidoyl-2-methylsulfanyl-thiophene-3-sulfonyl)-4-guanidino-6-methyl-biphenyl-2-ylcarbamoyl]-undecanoic acid bis-trifluoroacetate] | 6 to 23 |
